# Assays:
# [1] = molecular target: Leucine-rich repeat serine/threonine-protein kinase 2 (Homo sapiens, UniProt Q5S007, G2019S); test: Inhibition of LRRK2 G2019S mutant (unknown origin) using biotinylated ezrin/radaxin/meosin peptide as substrate measured after 1 hr
# [2] = molecular target: Leucine-rich repeat serine/threonine-protein kinase 2 (Homo sapiens, UniProt Q5S007); test: Inhibition of full length wild-type LRRK2 (unknown origin) using biotinylated ezrin/radaxin/meosin peptide as substrate measured after 1 hr
# Sequence of Leucine-rich repeat serine/threonine-protein kinase 2 (Homo sapiens, UniProt Q5S007) (Q5S007 whole entry): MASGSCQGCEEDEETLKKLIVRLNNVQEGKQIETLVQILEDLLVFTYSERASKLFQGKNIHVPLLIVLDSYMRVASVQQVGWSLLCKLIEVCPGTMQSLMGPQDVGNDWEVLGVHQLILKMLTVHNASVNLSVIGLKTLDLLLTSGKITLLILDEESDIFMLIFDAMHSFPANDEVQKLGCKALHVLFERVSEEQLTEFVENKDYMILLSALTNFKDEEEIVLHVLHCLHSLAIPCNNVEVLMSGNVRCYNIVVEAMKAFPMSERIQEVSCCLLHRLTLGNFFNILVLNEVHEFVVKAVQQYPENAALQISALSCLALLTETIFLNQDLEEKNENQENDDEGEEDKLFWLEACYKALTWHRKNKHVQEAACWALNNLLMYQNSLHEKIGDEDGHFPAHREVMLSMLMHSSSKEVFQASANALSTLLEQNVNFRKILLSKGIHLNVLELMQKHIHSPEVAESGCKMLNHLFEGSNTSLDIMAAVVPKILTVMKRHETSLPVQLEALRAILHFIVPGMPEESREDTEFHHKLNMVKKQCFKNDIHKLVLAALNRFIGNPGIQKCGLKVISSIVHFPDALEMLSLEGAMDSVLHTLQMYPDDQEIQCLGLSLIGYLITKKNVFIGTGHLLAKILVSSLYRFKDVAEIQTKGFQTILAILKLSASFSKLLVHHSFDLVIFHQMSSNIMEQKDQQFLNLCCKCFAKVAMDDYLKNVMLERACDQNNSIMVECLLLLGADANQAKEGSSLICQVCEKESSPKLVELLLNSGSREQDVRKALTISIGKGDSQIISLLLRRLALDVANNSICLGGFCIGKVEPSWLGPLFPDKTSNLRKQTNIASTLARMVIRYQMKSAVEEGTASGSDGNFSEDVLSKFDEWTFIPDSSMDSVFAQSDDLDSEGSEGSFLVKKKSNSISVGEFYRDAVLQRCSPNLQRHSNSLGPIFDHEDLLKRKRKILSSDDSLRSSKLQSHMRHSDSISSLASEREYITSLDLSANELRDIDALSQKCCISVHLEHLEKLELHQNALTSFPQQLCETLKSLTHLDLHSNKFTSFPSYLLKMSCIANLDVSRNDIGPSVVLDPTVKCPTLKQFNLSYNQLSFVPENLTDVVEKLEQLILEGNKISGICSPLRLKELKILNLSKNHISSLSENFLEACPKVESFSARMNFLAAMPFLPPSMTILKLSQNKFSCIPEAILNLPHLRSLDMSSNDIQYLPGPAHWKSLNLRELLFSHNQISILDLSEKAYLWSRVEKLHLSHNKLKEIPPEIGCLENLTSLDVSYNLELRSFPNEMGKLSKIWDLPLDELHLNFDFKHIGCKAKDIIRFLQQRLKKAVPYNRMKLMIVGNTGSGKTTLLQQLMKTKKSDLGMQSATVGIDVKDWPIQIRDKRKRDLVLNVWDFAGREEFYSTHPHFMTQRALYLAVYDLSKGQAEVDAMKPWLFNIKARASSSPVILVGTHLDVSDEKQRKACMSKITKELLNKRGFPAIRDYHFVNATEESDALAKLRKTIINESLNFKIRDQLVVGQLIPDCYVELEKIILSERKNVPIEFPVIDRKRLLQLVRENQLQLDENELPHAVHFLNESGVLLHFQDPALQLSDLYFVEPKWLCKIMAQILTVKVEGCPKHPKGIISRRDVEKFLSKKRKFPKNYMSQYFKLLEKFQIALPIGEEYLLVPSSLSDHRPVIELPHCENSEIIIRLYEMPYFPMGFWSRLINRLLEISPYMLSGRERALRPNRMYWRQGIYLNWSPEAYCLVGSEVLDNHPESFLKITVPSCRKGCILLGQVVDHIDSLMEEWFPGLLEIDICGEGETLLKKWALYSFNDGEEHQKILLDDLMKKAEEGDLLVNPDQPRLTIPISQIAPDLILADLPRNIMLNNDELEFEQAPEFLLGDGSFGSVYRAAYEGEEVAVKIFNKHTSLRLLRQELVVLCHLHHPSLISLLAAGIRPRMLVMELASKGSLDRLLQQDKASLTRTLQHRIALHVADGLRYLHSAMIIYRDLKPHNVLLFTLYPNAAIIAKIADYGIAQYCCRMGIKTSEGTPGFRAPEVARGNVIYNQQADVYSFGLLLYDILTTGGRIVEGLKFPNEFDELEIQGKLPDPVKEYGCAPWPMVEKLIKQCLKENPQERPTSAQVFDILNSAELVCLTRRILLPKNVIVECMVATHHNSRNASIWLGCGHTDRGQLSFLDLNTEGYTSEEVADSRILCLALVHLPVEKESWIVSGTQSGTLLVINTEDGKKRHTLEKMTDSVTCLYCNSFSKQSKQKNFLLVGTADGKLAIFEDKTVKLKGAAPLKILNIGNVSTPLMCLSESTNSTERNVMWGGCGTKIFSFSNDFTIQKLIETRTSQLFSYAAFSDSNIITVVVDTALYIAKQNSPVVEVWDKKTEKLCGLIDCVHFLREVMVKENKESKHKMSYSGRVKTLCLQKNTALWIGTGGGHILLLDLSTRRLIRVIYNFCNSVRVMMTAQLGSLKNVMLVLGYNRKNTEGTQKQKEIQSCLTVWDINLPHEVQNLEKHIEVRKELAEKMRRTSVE
# Sequence of Leucine-rich repeat serine/threonine-protein kinase 2 (Homo sapiens, UniProt Q5S007, G2019S) (Q5S007 whole entry G2019S): as the sequence (Q5S007 whole entry) above, with G2019S counted along it
structure (smiles),measurement,setting,value
CN(C)S(=O)(=O)c1ccc(C(=O)Nc2nc3ccccc3n2-c2ccccc2)o1,IC50,[1],> 10000 nM
same,IC50,[2],> 10000 nM
Clc1c[nH]c2ncc(-c3cncc(N4CCOCC4)n3)cc12,IC50,[1],≤ 500 nM
C[C@@H](Nc1c(C(N)=O)nnc2cc(-c3ccncc3)ccc12)C1CC1,IC50,[2],≤ 6 nM
O=c1[nH]ccc2nc(N3CCC(O)CC3)nc(Nc3cccc(C(F)(F)F)c3)c12,Ki,[2],54 nM
NC(=O)c1ccc(Nc2nc(N3CCOCC3)c3ccccc3n2)cc1,IC50,[1],633 nM
same,IC50,[2],825 nM
COc1cc(N2CCOCC2)ccc1Nc1ncc(F)c(Nc2ccccc2NS(C)(=O)=O)n1,IC50,[1],1.9 nM
same,IC50,[2],1.3 nM
CCOc1ccc(Nc2nc(N3CCOCC3)c3nc[nH]c3n2)cc1,IC50,[1],355 nM
same,IC50,[2],351 nM
CCn1c(NC(=O)c2ccnc(-n3ccnc3)c2)nc2ccccc21,IC50,[1],274 nM
same,IC50,[2],343 nM
COc1cccc(Nc2nc(NCCO)c3nc[nH]c3n2)c1,IC50,[1],48 nM
same,IC50,[2],84 nM
Cc1ccccc1Nc1nc2ccc(-c3cc(C)c(O)c(C)c3)cn2n1,IC50,[2],10 nM
c1cc(-c2n[nH]c3ccnc(OC4CCOCC4)c23)cc(N2CCCC2)n1,IC50,[2],3 nM
